# In paper PMC10648877, “Novel Substituted Azoloazines with Anticoagulant Activity” (International Journal of Molecular Sciences, 2023):
# How the values were obtained:
# [1] = system: platelet-poor plasma (PPP); assay: Prothrombin time (PT), rabbit blood coagulogram in vitro; settings: 100 μM, M ± m, n = 6;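 also: clotting time read chronometrically on a hemocoagulometer using commercial reagent kits, with dabigatran etexilate at the same concentration as reference anticoagulant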
# Experimental: The study was performed on platelet-poor plasma (PPP) stabilized with a 3.8% sodium citrate solution in a ratio of 9:1 according to the method described in [34]. Dabigatran etexilate (Boehringer Ingelheim Pharma GmbH and Co., Ingelheim am Rhein, Germany) was used as the reference drug. Test compounds and the reference drug were evaluated at a concentration of 100 μM. Effect on rabbit blood coagulograms in vitro was determined chronometrically with a SOLAR hemocoagulometer (Minsk, Belarus) using commercial kits (Technology-Standard, Barnaul, Russia) as per the manufacturer’s instructions. The following parameters were determined: activated partial thromboplastin time, thrombin time, and prothrombin time.
# [2] = system: platelet-poor plasma (PPP); assay: Activated partial thromboplastin time (APTT), rabbit blood coagulogram in vitro; type: biochemical; settings: 100 μM, M ± m, n = 6;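 also: clotting time read chronometrically on a hemocoagulometer with commercial reagent kits, one of several coagulogram parameters alongside thrombin and prothrombin time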
# Experimental: Test compounds and the reference drug were evaluated at a concentration of 100 μM. Effect on rabbit blood coagulograms in vitro was determined chronometrically with a SOLAR hemocoagulometer (Minsk, Belarus) using commercial kits (Technology-Standard, Barnaul, Russia) as per the manufacturer’s instructions. The following parameters were determined: activated partial thromboplastin time, thrombin time, and prothrombin time.
# [3] = system: platelet-poor plasma (PPP); assay: Thrombin time (TT), rabbit blood coagulogram in vitro; type: biochemical; settings: rabbit blood in vitro, 100 μM; for TT: M ± m, n = 6
Structure (SMILES),melting point [°C],PT [1] [s],APTT [2] [s],increase of thrombin time relative to the control [3] [times],TT [3] [s]
"CCOC(=O)C1=C(C)Nc2ncnn2C1c1cccc(NC(=O)CN)c1 (stereo not shown) [Compound 10a, Ethyl 7-(3-(2-aminoacetamido)phenyl)-5-methyl-4,7-dihydro-[1,2,4]triazolo[1,5-a]pyrimi-dine-6-carboxylate]",270 to 272,13.2 ± 1.0,30.9 ± 0.6,3.5,48.6 ± 22.4
CCOC(=O)C1=C(C)Nc2ncnn2C1c1ccccc1 (stereo not shown) [Compound 8c],,14.2 ± 0.1,34.6 ± 0.7,,34.7 ± 0.7
CCCn1c2ccccc2c2nc3ccccc3nc21 [Compound 1f],,13.1 ± 0.3,24.8 ± 4.2,3.5,39.3 ± 1.8
N=C(N)Nc1nnc2ncc(SCc3ccccc3)n2n1 [Compound 15a],,14.5 ± 0.3,34.0 ± 0.6,,32.8 ± 0.8
CCCCn1c2ccccc2c2nc3cc(C)c(C)cc3nc21 [Compound 1g],,11.7 ± 0.4,30.6 ± 1.6,,34.1 ± 0.9
"COC1C([N+](=O)[O-])=CNc2nc(C(F)(F)F)nn21 (stereo not shown) [Compound 12a, 2-Trifluoromethyl-6-nitro-7-methoxy-4,7-dihydro[1,5-a]pyrimidyl-4 guanidate]",,14.2 ± 0.1,25.1 ± 0.8,,24.3 ± 3.5
CN(C)CCCn1c2ccccc2c2nc3ccccc3nc21 [Compound 1j],,14.2 ± 0.4,32.5 ± 0.1,,22.0 ± 2.7
Cc1cc2nc3c4ccccc4n(CCCN(C)C)c3nc2cc1C [Compound 1i],,13.8 ± 0.3,32.1 ± 4.8,,21.9 ± 1.2
"O=[N+]([O-])C1=NNc2ncnn2C1O (stereo not shown) [Compound 14, 6-Nitro-7-hydroxy-4,7-dihydro-1,2,4-triazolo[5,1-c]triazinyl-4 guanidate]",,14.5 ± 0.5,24.5 ± 0.8,,23.8 ± 3.5
CCCCn1c2ccccc2c2nc3ccccc3nc21 [Compound 1h],,13.9 ± 0.1,25.7 ± 3.1,,35.6 ± 1.1
C1=C(c2cccs2)n2ncnc2NC1c1ccccc1 (stereo not shown) [Compound 5c],,13.9 ± 0.2,27.6 ± 1.9,,41.4 ± 3.1
Cc1cc2nc3c4ccccc4n(CCN4CCOCC4)c3nc2cc1C [Compound 1c],,13.8 ± 0.4,27.1 ± 2.0,,26.2 ± 1.0
Cc1cc2nc3c4ccccc4n(CCN(C)C)c3nc2cc1C [Compound 1a],,14.5 ± 0.0,22.1 ± 5.9,,22.7 ± 2.0
CCCCCCCCCCCCSc1cnc2nnc(NC(=N)N)nn12 [Compound 15b],,14.0 ± 0.2,34.1 ± 0.5,,33.7 ± 0.6
C1=C(c2ccccc2)n2ncnc2NC1c1cccs1 (stereo not shown) [Compound 5b],,15.8 ± 0.3,25.9 ± 2.2,,21.0 ± 0.0
C1=C(c2ccccc2)n2ncnc2NC1c1ccccc1 (stereo not shown) [Compound 5a],,13.4 ± 0.1,26.3 ± 2.9,3.5,43.8 ± 4.3
CN(C)CCn1c2ccccc2c2nc3ccccc3nc21 [Compound 1b],,13.3 ± 0.2,26.8 ± 2.4,,23.9 ± 0.9
c1ccc2nc3c(nc2c1)c1ccccc1n3CCN1CCOCC1 [Compound 1d],,13.4 ± 0.3,18.2 ± 0.5,,26.7 ± 1.3
CCCn1c2ccccc2c2nc3cc(C)c(C)cc3nc21 [Compound 1e],,13.4 ± 0.1,29.6 ± 0.2,,38.0 ± 0.5
